Results on 10 compounds are retold here after ChEMBL document CHEMBL1201862, “PubChem BioAssay data set” (2004).

Common to all, as to assay: NCI anticancer screen, dose series, 48 h
For assay [1], the system named is 786-0.
In assay [2] the test system is A498.
Assay [3] concerns ACHN.
The subject of assay [4] is CAKI-1.
For assay [5], the system named is HCT-116.
In assay [6] the test system is HT-29.
The test system of assay [7] is Hs-578T.
Assay [8] deals with M14.
The subject of assay [9] is NCI-H226.
Assay [10] has as its system NCI/ADR-RES.
In assay [11] the test system is PC-3.
The test system of assay [12] is RXF 393.
In assay [13] the test system is SF-295.
Assay [14] has as its system SF-539.
The subject of assay [15] is SK-MEL-28.
The test system of assay [16] is SK-MEL-2.
The test system of assay [17] is SR.
Assay [18] deals with T47D.
For assay [19], the system named is UACC-62.

The structures appear in SMILES notation.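 Grown in 96-well plates, cells were treated for 48 hours with each compound at five concentrations. Insufficient inhibition: endpoint recorded as highest concentration tested. GI50 marks 50% less growth.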 Activity calls are given as the source filed them. Rule as the data show it: active = GI50 up to about 1.1 µM and inactive = higher.

With `CCOc1cccc(-c2cc(O)c3cc4c(cc3n2)OCO4)c1`, the GI50 in [1] is 0.197 µM (active); in assay [2], 78.9 µM (inactive); in assay [3], 0.51 µM (active); in assay [4], 0.2 µM (active); in [5] it was 0.0942 µM (active); in assay [6] it was 0.221 µM (active). Besides, the GI50 was 0.163 µM (active) in assay [7]; 0.371 µM (active) in assay [8]; 0.438 µM (active) in [9]; 0.0828 µM (active) in assay [10]; 0.112 µM (active) in assay [11]; 0.0953 µM (active) in [12]. Besides, the GI50 is 0.0735 µM (active) in [13]; 0.13 µM (active) in assay [14]; 1.66 µM (inactive) in [15]; 0.191 µM (active) in [16]; 0.0476 µM (active) in assay [17]; 54.7 µM (inactive) in assay [18]. For the same compound, in [19], the GI50 is 0.043 µM (active).
For the compound `O=C(O)c1[nH]c2c([N+](=O)[O-])cc([N+](=O)[O-])cc2c1C(=O)O`, the GI50 in [1], in [2], in assay [3], in [4], in [5] and in assay [6] was > 100 µM (inactive) throughout. The GI50 in [7] was > 100 µM (inactive); in [8], 56.1 µM (inactive); in assay [9], > 100 µM (inactive); in assay [10] it was > 100 µM (inactive); in assay [11], > 100 µM (inactive); in assay [12], > 100 µM (inactive). Further, the GI50 in assay [13] was > 100 µM (inactive); in assay [14] it was > 100 µM (inactive); in assay [15], > 100 µM (inactive); in [16], > 100 µM (inactive); in assay [17] it was 75.5 µM (inactive); in assay [18] it was > 100 µM (inactive). Moreover, the GI50 in assay [19] is > 100 µM (inactive).
Take `O=CNc1ncn[nH]1`: the GI50 in [1], in [2], in [3], in [4], in assay [5] and in assay [6] was > 100 µM (inactive) in each case. In addition, the GI50 in assay [7], in assay [8], in assay [9], in assay [10], in [11] and in assay [12] was > 100 µM (inactive) each time. The GI50 in [13], in assay [14], in assay [15], in [16], in assay [17] and in assay [18] was > 100 µM (inactive) each time. Further, in assay [19], the GI50 was > 100 µM (inactive).
For `COc1c2c(cc3c1OCO3)[C@]13C=C[C@H](OC)C[C@H]1N(C2)CC3O` (stereo not given in full), the GI50 in [1], in assay [2], in [3], in [4], in assay [5] and in assay [6] was > 100 µM (inactive) throughout. The GI50 in assay [7], in [8], in assay [9], in assay [10], in assay [11] and in [12] was > 100 µM (inactive) each time. The GI50 in assay [13] was > 100 µM (inactive); in assay [14] it was > 100 µM (inactive); in assay [15] it was > 100 µM (inactive); in assay [16], > 100 µM (inactive); in assay [17] it was 18.4 µM (inactive); in assay [18], > 100 µM (inactive). Further, in assay [19], the GI50 is > 100 µM (inactive).
`C=C1CCC2[C@](C)(CCC[C@]2(C)C(=O)O)[C@@H]1CCc1ccoc1` (stereo not given in full): the GI50 in assay [1] was 48.6 µM (inactive); in assay [2], 47 µM (inactive); in [3] it was 41.7 µM (inactive); in assay [4], 32.8 µM (inactive); in assay [5] it was 33.7 µM (inactive); in [6], 24.2 µM (inactive). The GI50 is 33.2 µM (inactive) in [7]; 41.1 µM (inactive) in assay [8]; 20.6 µM (inactive) in assay [9]; 38.5 µM (inactive) in assay [10]; 46 µM (inactive) in assay [11]; 36.2 µM (inactive) in assay [12]. Besides, the GI50 is 47.5 µM (inactive) in assay [13]; 37 µM (inactive) in assay [14]; 61.1 µM (inactive) in assay [15]; 29.4 µM (inactive) in [16]; 27 µM (inactive) in assay [17]; 57.8 µM (inactive) in assay [18]. Besides, in assay [19], the GI50 was 35.2 µM (inactive).
Regarding `C#C/C=C/CC1OC(C(Br)CC)CC(Br)C2CC1O2` (stereo not given), the GI50 was 7.69 µM (inactive) in assay [1]; > 100 µM (inactive) in [2]; 39.4 µM (inactive) in [3]; > 100 µM (inactive) in [4]; 30.6 µM (inactive) in assay [5]; 42.6 µM (inactive) in assay [6]. Besides, the GI50 in assay [7] was 87.9 µM (inactive); in assay [8], > 100 µM (inactive); in assay [9], > 100 µM (inactive); in assay [10], 19.1 µM (inactive); in [11], 45.6 µM (inactive); in assay [12] it was 48.6 µM (inactive). For the same compound, the GI50 in [13] was > 100 µM (inactive); in assay [14], > 100 µM (inactive); in assay [15], 42.1 µM (inactive); in assay [16], > 100 µM (inactive); in assay [17], 34.6 µM (inactive); in [18], 75.3 µM (inactive). Besides, the GI50 in [19] was 56.2 µM (inactive).
As to `CCCCCCCCCCCCOC1C(COCCN2CCCCC2)OC2OC(C)(C)OC21` (stereo not given), the GI50 was 1.73 µM (inactive) in assay [1]; 14.8 µM (inactive) in assay [2]; 2.12 µM (inactive) in assay [3]; 1.73 µM (inactive) in assay [4]; 1.67 µM (inactive) in [5]; 1.21 µM (inactive) in [6]. The GI50 in assay [7] is 2 µM (inactive); in [8], 1.63 µM (inactive); in assay [9] it was 3.99 µM (inactive); in assay [10] it was 4.3 µM (inactive); in assay [11], 1.75 µM (inactive); in assay [12] it was 1.7 µM (inactive). Also, the GI50 in assay [13] is 1.69 µM (inactive); in assay [14], 1.76 µM (inactive); in [15], 1.82 µM (inactive); in [16] it was 1.73 µM (inactive); in [17], < 0.01 µM (active); in [18], 1.94 µM (inactive). Also, the GI50 in assay [19] was 1.84 µM (inactive).
Turning to `C=CC[C@@]1([C@H](C=C)COCc2ccc(OC)cc2)CC[C@]2(C)OC(C)(C)[C@@H](c3ccccc3)N2C1=S`, the GI50 in assay [1] was 58.6 µM (inactive); in [2], 71.3 µM (inactive); in assay [3] it was 43 µM (inactive); in [4], > 100 µM (inactive); in assay [5] it was 35.9 µM (inactive); in [6], 29 µM (inactive). The GI50 in assay [7] was 52.2 µM (inactive); in assay [8] it was 35.3 µM (inactive); in assay [9] it was 39.5 µM (inactive); in assay [10], > 100 µM (inactive); in assay [11], 31.4 µM (inactive); in [12], 86.7 µM (inactive). The GI50 is 43.1 µM (inactive) in [13]; 95.3 µM (inactive) in [14]; 57.1 µM (inactive) in assay [15]; 23.5 µM (inactive) in [16]; 73.5 µM (inactive) in assay [17]; 37.3 µM (inactive) in assay [18]. Moreover, the GI50 in assay [19] was 28.2 µM (inactive).
`COc1ccc2c(c1)OC(c1cccnc1)C(c1ccccc1)C2=O` (stereo not given): the GI50 in assay [1] is 86.1 µM (inactive); in [2], > 100 µM (inactive); in assay [3] it was > 100 µM (inactive); in [4], > 100 µM (inactive); in [5], 97.5 µM (inactive); in [6] it was > 100 µM (inactive). Moreover, the GI50 in [7] is 54 µM (inactive); in assay [8] it was > 100 µM (inactive); in assay [9], 98.9 µM (inactive); in assay [10], > 100 µM (inactive); in [11], > 100 µM (inactive); in assay [12] it was > 100 µM (inactive). Also, the GI50 in assay [13] was 46.5 µM (inactive); in [14] it was > 100 µM (inactive); in assay [15], > 100 µM (inactive); in [16] it was > 100 µM (inactive); in [17], > 100 µM (inactive); in [18], > 100 µM (inactive). Further, in assay [19], the GI50 is > 100 µM (inactive).
As for `CCCCON1C[C@H](OC(C)=O)C(OC(C)=O)[C@H](OC(C)=O)C1` (stereo not given in full), the GI50 in assay [1], in [2], in assay [3], in assay [4], in assay [5] and in [6] was > 100 µM (inactive) throughout. The GI50 in assay [7], in [8], in [9], in [10], in assay [11] and in [12] was > 100 µM (inactive) throughout. Besides, the GI50 in assay [13], in [14], in assay [15], in [16], in assay [17] and in [18] was > 100 µM (inactive) in each case. In addition, in assay [19], the GI50 is > 100 µM (inactive).
